pIC50: −log10 of the molar value. No end group written: not given here.
Legend:
[1] = test system: mouse hepatitis virus (MHV-A59; a murine coronavirus); experiment: Murine coronavirus MHV-A59 infection; type: in vivo
Experimental: Mice were dosed intranasally with 10^6 PFU MHIV-A59 followed by vehicle (saline) or 1.0 mg/kg of ELD607 per mouse 4 d p.i. BAL and lungs were collected 6 d p.i.
ELD607 normalized leukocyte composition and viral loads in the airways after murine coronavirus infection. Coronaviruses are emerging pathogens with severe outcomes in the human population. Mice were infected with 10^6 PFU mouse hepatitis virus (MHV-A59; a murine coronavirus) intranasally. The mice were then dosed with 1.0 mg/kg ELD607 or vehicle intranasally 4 days p.i. and then 2 days after dosing with ELD607 (6 days p.i.), mice were sacrificed to collect BAL and lung homogenates.

[2] = test system: P. aeruginosa POA1; experiment: P. aeruginosa infection in Orai1 heterozygous mice and WT littermates; type: in vivo; conditions: 10^7 CFU/mouse, 0.5 mg/kg intranasal
Text: ELD607, but not global Orai1 inhibition or steroids beneficially reduce pulmonary inflammation after P. aeruginosa infection.

[3] = test system: bleomycin-induced lung injury; experiment: Bleomycin-induced lung fibrosis in mice; type: in vivo; parameters: dose or concentration left out as unconfirmed
Experimental: Mice were exposed to 4 doses of bleomycin as described from days 1-37, then fibrosis was allowed to form from days 38-60. The mice were then dosed daily with inhaled […] (1 mg/kg) from days 61-82. Mice were sacrificed on Day 83 and histology was performed.
ELD607 reverses fibrosis in mice. Bleomycin-exposed mice are a well-established model to study IPF. Based on ATS guidelines, mice were dosed with […] bleomycin per dose 4 times over 37 days to induce fibrosis. From day 61, mice were then treated intranasally with […] ELD607 daily for 20 days (FIG. 40 panel A). Lungs were then collected and prepped for H&E staining and fibrosis was measured using the Ashcroft scaling system.

[4] = biological target: T1, Orai1 (Homo sapiens, UniProt Q96D31); experiment: Dose response of Ca^2+ influx (SOCE), Ca^2+ add back approach, HEK293T cells; type: cell-based; parameters: Endogenous Orai1/store operated Ca^2+ influx have been extensively studied in HEK293T cells; endogenous in cells; host or cells: HEK293T
Experimental: HEK293T cells were cultured in 384 well plates. Cells were then exposed to vehicle or […] ELD607 for 1 h. 100 nM thapsigargin was then added followed by extracellular Ca^2+ to differentiate ER Ca^2+ release and SOCE. n=8-12 cultures per data point.
(§1) ELD607 requires Orai1 expression to inhibit Ca^2+ signaling. […] Using this approach, curves were fitted to the data and the 50% inhibitory concentrations (IC50S) were calculated.

[5] = test system: αSMA; experiment: αSMA expression in fibroblasts after three days of TGFβ (confocal microscopy); type: cell-based
Experimental: After three days of TGFβ induced αSMA deposition, ELD607 was then added for 24 h at 10 μM and αSMA expression was assessed by confocal microscopy. Data are shown as mean+/−SEM and data were analyzed by ANOVA.
FIG. 39A-39B show ELD607 reduces αSMA deposition. After three days of TGFβ induced αSMA deposition, ELD607 or other compounds (pirfenidone, nintedanib, zigovractin, YM-58483) were then added as indicated for 24 h at 10 μM. […] Data are shown as mean+/−SEM and data were analyzed by ANOVA.
In vitro Methods: Fibroblasts were exposed to 10 nM TFGβ for 3-7 days as indicated. Then, ELD607 was added overnight. Fibroblasts were then fixed in paraformaldehyde, stained with primary a smooth muscle actin (αSMA) antibody, and imaged by confocal microscopy. Myofibroblasts were exposed to ELD607 without any TGFβ pre-treatment. In some cases, Western blotting was used to probe for αSMA.
Fibroblasts were exposed to TGFβ for three days and then exposed to vehicle or the indicated compounds. Cells were then fixed, stained for αSMA, and expression measured by confocal microscopy.

[6] = test system: HEK293 T cells; experiment: Cytotoxicity in HEK293 T cells (calcein); type: cell-based; conditions: 100 μM, 24 h
Experimental: FIG. 28 panels C and D show cell viability per arbitrary units (left) and transepithelial resistance (right) of vehicle vs. ELD607 before and after treatment.
ELD607 is non-toxic in vitro and in vivo. To investigate potential cytotoxic effects of ELD607, […] were exposed to 100 μM ELD607 for 24 h. Cytotoxicity was assessed by exposing cells to calcein to label live cells and fluorescence read by multi-plate reader. […] Primary human bronchial epithelial cultures were exposed to 1 mM ELD607 or vehicle control (saline) for 24 h. Cytotoxicity was assessed by confocal microscopy using calcein and propidium iodide to label live and dead cells respectively. […] Transepithelial resistance was also measured before and after treatment as a measure of epithelial integrity.

[7] = biological target: T1, Orai1; experiment: Thapsigargin / Ca^2+ add back assay in HEK293T cells with anti-Orai1 shRNA; type: cell-based; parameters: Endogenous Orai1/store operated Ca^2+ influx have been extensively studied in HEK293T cells; endogenous in cells; host or cells: HEK293T
Experimental: HEK293T cells were transfected with anti-Orai1 shRNA for 48 h and the change in Fluo4 fluorescence was measured. Cells were then exposed to vehicle or […] ELD607 for 1 h. Thapsigargin was then added followed by extracellular Ca^2+ to differentiate ER Ca^2+ release and SOCE. n=8 cultures per condition.
as §1

[8] = test system: P. aeruginosa; experiment: P. aeruginosa infection in WT mice, ELD607 versus comparators; type: in vivo; conditions: WT mice infected with P. aeruginosa
Text: We then infected WT mice with P. aeruginosa and treated with ELD607, the Orai1 small molecule antagonist […], dexamethasone or scrambled ELD607.

[9] = biological target: T1, Orai1; experiment: Orai1 immunocytochemistry on immune cells of ARDS/bacterial pneumonia patients; type: cell-based; parameters: immune cells of ARDS/bacterial pneumonia patients; endogenous in cells; host or cells: immune cells from tracheal aspirates of ARDS/bacterial pneumonia patients; conditions: paired patient samples
Text: We then performed Orai1 immunocytochemistry on paired samples of immune cells of ARDS/bacterial pneumonia patients. Cells derived from each patient were exposed to either vehicle, ELD607, or scrambled ELD607 (FIG. 27, panels D and E).

[10] = 1.0 mg/kg intranasal 4 days p.i., read 6 days p.i.

T1 sequence (Q96D31 whole entry): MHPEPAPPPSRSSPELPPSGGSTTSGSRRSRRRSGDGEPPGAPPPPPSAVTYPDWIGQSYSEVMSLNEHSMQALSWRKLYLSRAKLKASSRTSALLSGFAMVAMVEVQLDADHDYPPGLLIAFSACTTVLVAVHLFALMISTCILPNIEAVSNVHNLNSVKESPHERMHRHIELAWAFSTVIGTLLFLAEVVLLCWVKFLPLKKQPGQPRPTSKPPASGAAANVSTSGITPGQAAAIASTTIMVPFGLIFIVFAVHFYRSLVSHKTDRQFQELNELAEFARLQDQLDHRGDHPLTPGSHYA

VHDIVNMLIRG [ELD607, VHDIVNMLIRG]
lung lymphocyte levels (B cells and T cells) [1, 10]: significantly reduced lung lymphocyte levels | lung monocyte and macrophage levels [1, 10]: normalized lung monocyte and macrophage levels | viral loads in the lungs and BAL ([1]; one dose 1.0 mg/kg): significantly reduced | leukocyte levels in WT littermate controls [2]: normalized leukocytes similar to naïve mice | lung damage (Ashcroft) ([3]; 25 intranasally daily for 20 days from day 61): significantly less lung damage than vehicle controls | acute and chronic bleomycin-induced lung injury ([3]; lower dose of 19, different time course): reduces acute and chronic bleomycin-induced lung injury | pIC50 ([4]; Ca^2+ influx, HEK293T, 100 nM thapsigargin, read-out: IC50 (Molar)): 7.09 | Bottom (%) ([4]; fitted curve bottom, text: maximal inhibitions): 37.76% | reduction in αSMA versus pirfenidone, nintedanib, zigrocractin and YM-58483 ([5]; 10 μM, 24 h): significantly greater reduction in αSMA than all other compounds tested | αSMA expression, dose dependence ([5]; TGFβ three days, then ELD607 24 h): dose-dependently reduced αSMA expression | cell viability (calcein) [6]: not significantly different to vehicle control | thapsigargin-stimulated Ca^2+ release from the ER ([7]; absence of extracellular Ca^2+): had no effect on this component | effect on Ca^2+ homeostasis after shRNA knockdown of Orai1 ([7]; anti-Orai1 shRNA 48 h): no longer able to affect Ca^2+ homeostasis | Ca^2+ influx ([7]; extracellular Ca^2+ added back): reduced Ca^2+ influx | bacterial infections [8]: significantly reduced | lung macrophage levels [8]: increased lung macrophage levels | neutrophilia [8]: significantly reduced | weight loss [8]: significantly reduced | Orai1 levels [9]: significant reduction in Orai1 levels

Source: patent US20250114430A1, “MODIFIED PEPTIDOMIMETICS AND METHODS OF USE” (The University of North Carolina at Chapel Hill, priority 2021, published 2025)
